Laboratory results: the CheMixHub viscosity set

Assay: xn = mol fraction of the nth substance listed

CC1CCC(=O)O1 (centres undefined) + O
viscosity [mPa·s], 101 kPa
Settings | x1 = 0.0503 | x1 = 0.0995 | x1 = 0.1997 | x1 = 0.2994 | x1 = 0.3997 | x1 = 0.499 | x1 = 0.5994 | x1 = 0.701 | x1 = 0.7995 | x1 = 0.8996
298.15 K | 1.405 | 1.747 | 2.113 | 2.204 | 2.169 | 2.055 | 1.998 | 1.902 | 1.856 | 1.823
303.15 K | 1.243 | 1.533 | 1.852 | 1.939 | 1.921 | 1.831 | 1.786 | 1.719 | 1.689 | 1.671
308.15 K | 1.107 | 1.357 | 1.638 | 1.721 | 1.714 | 1.65 | 1.612 | 1.566 | 1.545 | 1.538
313.15 K | 0.962 | 1.193 | 1.449 | 1.529 | 1.531 | 1.487 | 1.454 | 1.426 | 1.408 | 1.407
318.15 K | 0.8912 | 1.089 | 1.31 | 1.384 | 1.392 | 1.36 | 1.342 | 1.32 | 1.311 | 1.314

O=Cc1ccco1 + CCCC[P+](C)(CCCC)CCCC.COS(=O)(=O)[O-]
viscosity [mPa·s], 100 kPa
Settings | 293.15 K | 298.15 K | 303.15 K | 308.15 K | 313.15 K | 318.15 K | 323.15 K
x2 = 0.062 | 2.53 | – | – | – | – | – | –
x2 = 0.1 | 8.96 | 3.49 | 3.13 | 2.99 | 2.64 | 2.46 | –
x2 = 0.142 | – | – | 4.13 | 3.99 | 3.64 | 3.46 | –
x2 = 0.191 | 41.29 | – | – | 5.55 | 5.56 | 4.32 | 4.01
x2 = 0.249 | 64.53 | 30.58 | – | – | – | – | –
x2 = 0.317 | – | 46.54 | 24.83 | – | 8.79 | – | 6.01
x2 = 0.399 | – | 72.22 | 39.81 | – | – | 9.92 | –
x2 = 0.499 | – | – | – | 33.52 | – | – | –
x2 = 0.624 | 270.6 | – | – | 58.28 | – | 32.22 | 26.66
x2 = 0.732 | 396.3 | 265.6 | – | 133.5 | – | 81.46 | 73.46
x2 = 0.823 | 501.6 | 350.8 | 255.5 | – | – | 116.5 | 99.45
x2 = 0.863 | 555 | 392.6 | 287.1 | – | – | – | –
x2 = 0.91 | 614.7 | 435.6 | 319.2 | – | – | – | –
x2 = 0.951 | 664.4 | 475.8 | 351.2 | 265.8 | – | 158.5 | –

Cc1cccc(O)c1 + O=Cc1ccccc1
308.15 K, 101.33 kPa
Settings | viscosity [mPa·s]
x2 = 0.103 | 5.863
x2 = 0.308 | 3.972
x2 = 0.398 | 3.45
x2 = 0.545 | 2.597
x2 = 0.602 | 2.3
x2 = 0.704 | 1.844
x2 = 0.903 | 1.37

ClC1CCCCC1 + C1CCOCC1
viscosity [mPa·s], 101.3 kPa
Settings | x2 = 0.1031 | x2 = 0.2 | x2 = 0.3037 | x2 = 0.4038 | x2 = 0.4996 | x2 = 0.6036 | x2 = 0.6992 | x2 = 0.8038 | x2 = 0.9034
298.15 K | 1.459 | 1.364 | 1.27 | 1.188 | 1.114 | 1.04 | 0.9774 | 0.9135 | 0.8561
313.15 K | 1.141 | 1.073 | 1.002 | 0.9418 | 0.8879 | 0.8332 | 0.7853 | 0.7364 | 0.6928

OCC1CC1 + CC(C)CC(C)(C)C
viscosity [mPa·s], 101 kPa
Settings | x1 = 0.0991 | x1 = 0.1991 | x1 = 0.3007 | x1 = 0.4013 | x1 = 0.5 | x1 = 0.6004 | x1 = 0.7007 | x1 = 0.8004 | x1 = 0.9002
293.15 K | 0.535 | 0.592 | 0.676 | 0.801 | 0.97 | 1.214 | 1.561 | 2.068 | 2.803
298.15 K | 0.505 | 0.556 | 0.63 | 0.74 | 0.886 | 1.098 | 1.398 | 1.831 | 2.459
303.15 K | 0.476 | 0.522 | 0.587 | 0.684 | 0.811 | 0.997 | 1.257 | 1.632 | 2.168
308.15 K | 0.45 | 0.491 | 0.549 | 0.634 | 0.746 | 0.908 | 1.136 | 1.46 | 1.921
313.15 K | 0.425 | 0.462 | 0.514 | 0.59 | 0.688 | 0.831 | 1.029 | 1.31 | 1.709
318.15 K | 0.396 | 0.431 | 0.478 | 0.546 | 0.633 | 0.759 | 0.934 | 1.181 | 1.527
323.15 K | 0.38 | 0.411 | 0.454 | 0.514 | 0.59 | 0.701 | 0.854 | 1.071 | 1.372
